pIC50: −log10 of the molar value.

The results in this text go back to US10414740B2, “Glutaminase inhibitors and method of use” (Agios Pharmaceuticals, Inc., priority 2012, dated 2019).

The target in this test is T1, glutaminase (GAC) (Homo sapiens, UniProt O94925).
T1 sequence (O94925 55-598 isoform O94925-3 limits assumed): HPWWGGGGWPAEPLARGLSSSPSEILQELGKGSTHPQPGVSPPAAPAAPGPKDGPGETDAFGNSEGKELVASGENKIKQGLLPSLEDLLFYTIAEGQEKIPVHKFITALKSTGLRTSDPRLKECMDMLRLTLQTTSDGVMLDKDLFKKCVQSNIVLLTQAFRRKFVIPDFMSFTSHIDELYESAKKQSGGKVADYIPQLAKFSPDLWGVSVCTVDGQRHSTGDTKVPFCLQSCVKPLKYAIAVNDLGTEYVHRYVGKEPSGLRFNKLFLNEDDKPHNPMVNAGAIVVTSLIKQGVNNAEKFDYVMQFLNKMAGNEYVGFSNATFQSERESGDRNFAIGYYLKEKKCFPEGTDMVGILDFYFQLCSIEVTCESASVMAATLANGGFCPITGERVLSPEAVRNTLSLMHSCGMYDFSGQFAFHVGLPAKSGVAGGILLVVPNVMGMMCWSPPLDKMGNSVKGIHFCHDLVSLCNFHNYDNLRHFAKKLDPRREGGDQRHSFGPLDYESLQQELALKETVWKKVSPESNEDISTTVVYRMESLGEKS
Briefly: glutaminase coupled endpoint assay (Example A). It is filed as biochemical. The conditions noted are these: inhibition of glutaminase; IC50 tested in an assay of Example A or Example B. In short, it runs like this:
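Coupled endpoint read-out: glutamate from GAC is converted by excess GDH, and diaphorase recycles NADH to NAD while reducing resazurin to fluorescent resorufin, so loss of signal means inhibition. Compound in DMSO is preincubated with enzyme for 60 min at room temperature before substrate is added. Hits are counterscreened against GDH/diaphorase alone.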
In the case of `O=C(Nc1nnc(CCCCc2nnc(NC(=O)C3CCCCC3)s2)s1)C1CCCCC1` [Compound 90, N,N′-(5,5′-(butane-1,4-diyl)bis(1,3,4-thiadiazole-5,2-diyl))dicyclohexanecarboxamide], the pIC50 is 6.30 to 7.00.

In turn, `O=C(CCc1ccccc1Cl)Nc1nnc(CCCCc2nnc(NC(=O)CCc3ccccc3Cl)s2)s1` [Compound 91, N,N′-(5,5′-(butane-1,4-diyl)bis(1,3,4-thiadiazole-5,2-diyl))bis(3-(2-chlorophenyl)propanamide)] gave a pIC50 of 6.30 to 7.00.

`O=C(Cc1cccc(C(F)(F)F)c1F)Nc1nnc(CCCCc2nnc(NC(=O)Cc3cccc(C(F)(F)F)c3F)s2)s1` [Compound 92]: the pIC50 is 5.00 to 6.00.

`O=C(CC1OC(=O)c2ccccc21)Nc1nnc(CCCCc2nnc(NC(=O)CC3OC(=O)c4ccccc43)s2)s1` (stereo not drawn) [Compound 93, N,N′-(5,5′-(butane-1,4-diyl)bis(1,3,4-thiadiazole-5,2-diyl))bis(2-(3-oxo-1,3-dihydroisobenzofuran-1-yl)acetamide)] had a pIC50 of 6.30 to 7.00.

`CC(=O)Nc1nnc(CCCCc2nnc(NC(C)=O)s2)s1` [Compound 94, N,N′-(5,5′-(butane-1,4-diyl)bis(1,3,4-thiadiazole-5,2-diyl))diacetamide]: the pIC50 is 6.00 to 6.30.

Molecule `O=C(Nc1nnc(CCCCc2nnc(NC(=O)C3CCCC3)s2)s1)C1CCCC1` [Compound 95, N,N′-(5,5′-(butane-1,4-diyl)bis(1,3,4-thiadiazole-5,2-diyl))dicyclopentanecarboxamide] showed a pIC50 of 6.00 to 6.30.

Take `CC(C)(C)CC(=O)Nc1nnc(CCCCc2nnc(NC(=O)CC(C)(C)C)s2)s1` [Compound 96]: the pIC50 is 5.00 to 6.00.

`CN(C(=O)Cc1ccccc1)c1nnc(CCCCc2nnc(N(C)C(=O)Cc3ccccc3)s2)s1` [Compound 97] gave a pIC50 of 5.00 to 6.00.

`CC(=O)Nc1nnc(CCCCc2nnc(NC(=O)Cc3ccccc3)s2)s1` [Compound 98] showed a pIC50 of 6.30 to 7.00.

For the molecule `O=C(Cc1ccccc1)Nc1cc(CCCCc2cc(NC(=O)Cc3ccccc3)on2)no1` [Compound 99], the pIC50 was 5.00 to 6.00.

In the case of `O=C(NCc1ccccc1)c1nnc(CCCCc2nnc(C(=O)NCc3ccccc3)s2)s1` [Compound 100], the pIC50 is 6.30 to 7.00.

Molecule `COc1cc(CCC(=O)Nc2nnc(CCCCc3nnc(NC(=O)CCc4cc(OC)c(OC)c(OC)c4)s3)s2)cc(OC)c1OC` [Compound 101, N,N′-(5,5′-(butane-1,4-diyl)bis(1,3,4-thiadiazole-5,2-diyl))bis(3-(3,4,5-trimethoxyphenyl)propanamide)] gave a negative-log IC50 (pIC50) of 6.00 to 6.30.

`O=C(Nc1nnc(CCCCc2nnc(NC(=O)C3CCC3)s2)s1)C1CCC1` [Compound 102, N,N′-(5,5′-(butane-1,4-diyl)bis(1,3,4-thiadiazole-5,2-diyl))dicyclobutanecarboxamide] gave a pIC50 of 6.00 to 6.30.

Regarding `O=C(CNC(=O)c1ccccc1)Nc1nnc(CCCCc2nnc(NC(=O)CNC(=O)c3ccccc3)s2)s1` [Compound 103, N,N′-(2,2′-(5,5′-(butane-1,4-diyl)bis(1,3,4-thiadiazole-5,2-diyl))bis(azanediyl)bis(2-oxoethane-2,1-diyl))dibenzamide], the pIC50 is 6.00 to 6.30.

`Cc1cccc(OCC(=O)Nc2nnc(CCCCc3nnc(NC(=O)COc4cccc(C)c4)s3)s2)c1` [Compound 104] showed a pIC50 of 5.00 to 6.00.

For `O=C(Nc1nnc(CCCCc2nnc(NC(=O)C3CC3)s2)s1)C1CC1` [Compound 105], the pIC50 was 5.00 to 6.00.

`COc1cccc(CCC(=O)Nc2nnc(CCCCc3nnc(NC(=O)CCc4cccc(OC)c4OC)s3)s2)c1OC` [Compound 106, N,N′-(5,5′-(butane-1,4-diyl)bis(1,3,4-thiadiazole-5,2-diyl))bis(3-(2,3-dimethoxyphenyl)propanamide)] had a pIC50 of 6.30 to 7.00.

Molecule `CN(C)c1ccc(CC(=O)Nc2nnc(CCCCc3nnc(NC(=O)Cc4ccc(N(C)C)cc4)s3)s2)cc1` [Compound 107, N,N′-(5,5′-(butane-1,4-diyl)bis(1,3,4-thiadiazole-5,2-diyl))bis(2-(4-(dimethylamino)phenyl)acetamide)] showed a negative-log IC50 (pIC50) of 6.30 to 7.00.

Molecule `O=C(Cc1ccccn1)Nc1nnc(CCC(O)CCc2nnc(NC(=O)Cc3ccccn3)s2)s1` [Compound 108] showed a pIC50 of 5.00 to 6.00.

Regarding `CC(C)(Oc1ccc(Cl)cc1)C(=O)Nc1nnc(CCCCc2nnc(NC(=O)C(C)(C)Oc3ccc(Cl)cc3)s2)s1` [Compound 109], the pIC50 is 5.00 to 6.00.

`CC(CC(=O)Nc1nnc(CCCCc2nnc(NC(=O)CC(C)c3ccccc3)s2)s1)c1ccccc1` (stereo not drawn) [Compound 110] gave a pIC50 of 5.00 to 6.00.

`O=C(CCOc1ccccc1)Nc1nnc(CCCCc2nnc(NC(=O)CCOc3ccccc3)s2)s1` [Compound 111, N,N′-(5,5′-(butane-1,4-diyl)bis(1,3,4-thiadiazole-5,2-diyl))bis(3-phenoxypropanamide)] showed a negative-log IC50 (pIC50) of 6.30 to 7.00.

`O=C(CCC(=O)c1ccccc1)Nc1nnc(CCCCc2nnc(NC(=O)CCC(=O)c3ccccc3)s2)s1` [Compound 112, N,N′-(5,5′-(butane-1,4-diyl)bis(1,3,4-thiadiazole-5,2-diyl))bis(4-oxo-4-phenylbutanamide)]: the pIC50 is 6.30 to 7.00.

`O=C(Cc1ccc(Cl)cc1)Nc1nnc(CCCCc2nnc(NC(=O)Cc3ccc(Cl)cc3)s2)s1` [Compound 113, N,N′-(5,5′-(butane-1,4-diyl)bis(1,3,4-thiadiazole-5,2-diyl))bis(2-(4-chlorophenyl)acetamide)] had a pIC50 of 6.30 to 7.00.

With `Cc1ccccc1CC(=O)Nc1nnc(CCCCc2nnc(NC(=O)Cc3ccccc3C)s2)s1` [Compound 114, N,N′-(5,5′-(butane-1,4-diyl)bis(1,3,4-thiadiazole-5,2-diyl))bis(2-o-tolylacetamide)], the pIC50 is 6.30 to 7.00.

Turning to `CC(C)CC(=O)Nc1nnc(CCCCc2nnc(NC(=O)CC(C)C)s2)s1` [Compound 115, N,N′-(5,5′-(butane-1,4-diyl)bis(1,3,4-thiadiazole-5,2-diyl))bis(3-methylbutanamide)], the pIC50 is 6.00 to 6.30.

The molecule `Cc1[nH]c2ccccc2c1CC(=O)Nc1nnc(CCCCc2nnc(NC(=O)Cc3c(C)[nH]c4ccccc34)s2)s1` [Compound 116, N,N′-(5,5′-(butane-1,4-diyl)bis(1,3,4-thiadiazole-5,2-diyl))bis(2-(2-methyl-1H-indol-3-yl)acetamide)] showed a pIC50 of over 7.00.

`COc1ccc(CC(=O)Nc2nnc(CCCCc3nnc(NC(C)=O)s3)s2)cc1OC` [Compound 118, N-(5-(4-(5-acetamido-1,3,4-thiadiazol-2-yl)butyl)-1,3,4-thiadiazol-2-yl)-2-(3,4-dimethoxyphenyl)acetamide] showed a pIC50 of 6.30 to 7.00.

The molecule `COc1ccc(CC(=O)Nc2nnc(CCCCc3nnc(NC(=O)Cc4ccc(OC)cc4OC)s3)s2)c(OC)c1` [Compound 119, N,N′-(5,5′-(butane-1,4-diyl)bis(1,3,4-thiadiazole-5,2-diyl))bis(2-(2,4-dimethoxyphenyl)acetamide)] had a pIC50 of over 7.00.

Take `O=C(CC1CCCCC1)Nc1nnc(CCCCc2nnc(NC(=O)CC3CCCCC3)s2)s1` [Compound 121, N,N′-(5,5′-(butane-1,4-diyl)bis(1,3,4-thiadiazole-5,2-diyl))bis(2-cyclohexylacetamide)]: the pIC50 was 6.30 to 7.00.

Regarding `Cn1nc(CC(=O)Nc2nnc(CCCCc3nnc(NC(=O)Cc4nn(C)c5ccccc45)s3)s2)c2ccccc21` [Compound 122, N,N′-(5,5′-(butane-1,4-diyl)bis(1,3,4-thiadiazole-5,2-diyl))bis(2-(1-methyl-1H-indazol-3-yl)acetamide)], the pIC50 is over 7.00.

Turning to `O=C(Cc1cccc2[nH]ccc12)Nc1nnc(CCCCc2nnc(NC(=O)Cc3cccc4[nH]ccc34)s2)s1` [Compound 123, N,N′-(5,5′-(butane-1,4-diyl)bis(1,3,4-thiadiazole-5,2-diyl))bis(2-(1H-indol-4-yl)acetamide)], the pIC50 was over 7.00.

The molecule `O=C(Cc1c[nH]c2ccncc12)Nc1nnc(CCCCc2nnc(NC(=O)Cc3c[nH]c4ccncc34)s2)s1` [Compound 124, N,N′-(5,5′-(butane-1,4-diyl)bis(1,3,4-thiadiazole-5,2-diyl))bis(2-(1H-pyrrolo[3,2-c]pyridin-3-yl)acetamide)] had a pIC50 of over 7.00.

`O=C(Cc1c[nH]c2cnccc12)Nc1nnc(CCCCc2nnc(NC(=O)Cc3c[nH]c4cnccc34)s2)s1` [Compound 125, N,N′-(5,5′-(butane-1,4-diyl)bis(1,3,4-thiadiazole-5,2-diyl))bis(2-(1H-pyrrolo[2,3-c]pyridin-3-yl)acetamide)] had a negative-log IC50 (pIC50) of over 7.00.

Turning to `O=C(Cc1n[nH]c2ccccc12)Nc1nnc(CCCCc2nnc(NC(=O)Cc3n[nH]c4ccccc34)s2)s1` [Compound 126, N,N′-(5,5′-(butane-1,4-diyl)bis(1,3,4-thiadiazole-5,2-diyl))bis(2-(1H-indazol-3-yl)acetamide)], the pIC50 was over 7.00.

On to `O=C(Cc1c[nH]c2cccnc12)Nc1nnc(CCCCc2nnc(NC(=O)Cc3c[nH]c4cccnc34)s2)s1` [Compound 127, N,N′-(5,5′-(butane-1,4-diyl)bis(1,3,4-thiadiazole-5,2-diyl))bis(2-(1H-pyrrolo[3,2-b]pyridin-3-yl)acetamide)], for which the pIC50 is over 7.00.

As usually defined, the pIC50 is the negative decadic logarithm of the IC50, by convention in mol/L. Low readings indicate a large IC50, high ones a small IC50.
